The results in this text go back to patent publication US20240043386A1, “Modulators of the Cystic Fibrosis Transmembrane Conductance Regulator Protein and Methods of Use” (AbbVie Global Enterprises Ltd., priority 2021, published 2024).

One assay concerns the target T1, F508delCFTR (Homo sapiens, UniProt P13569, DEL508-508).
T1 construct: expressed in transfected cells; host or cells: CFBE41o- human lung-derived epithelial cell line, doxycycline-inducible expression
Description: Cell Surface Expression-Horse Radish Peroxidase (CSE-HRP) assay in CFBE41o-F508delCFTR-HRP cells. The class given is cell-based. The following applies: for EC50: CFBE41o-F508delCFTR-HRP cells, 18-24 hours at 33° C., luminescence. In a few lines:
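CFBE41o- cells expressing F508delCFTR with HRP in the fourth exofacial loop were doxycycline-induced (0.5 μg/mL) for 68–72 h, then exposed to correctors for 18–24 h at 33 °C, with or without 2 μM co-corrector. Surface HRP was read by luminol luminescence, and % activity was normalized to the on-plate positive control; EC50 came from a variable-slope sigmoidal fit (8 points, 3-fold dilution, 20 or 30 μM top).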

The target in the next assay is T2, F508del/F508del CFTR (Homo sapiens, UniProt P13569, DEL508-508).
T2 construct: cells isolated from CF patients with the homozygous mutation; endogenous in cells; host or cells: primary human bronchial epithelial (hBE) cells from CF patients homozygous for F508del
Description: Trans-Epithelial Current Clamp (TECC) assay using primary human bronchial epithelial cells. The class given is cell-based. The note with it: for Emax (% Dual): maximum percent activity relative to positive control (co-corrector 0.15 μM + potentiator 0.45 μM = 100%), primary hBE cells F508del/F508del; for EC50: primary hBE cells homozygous F508del/F508del, test C2 corrector with co-corrector and potentiator, 18-24 hours at 37° C., equivalent CFTR current (IEQ)/AUC. The gist of the method:
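F508del/F508del primary hBE cells grown 35 days at air-liquid interface were treated basolaterally with C2 correctors plus fixed co-corrector and potentiator for 18-24 h at 37° C. TECC-24 current clamp at 36.5° C in HEPES-buffered F-12 Coon's, pH 7.4; equivalent current IEQ=VT/RT, plus AUC between forskolin peak and bumetanide.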

The mark [1] stands for this setting: with co-corrector (2 μM), read-out: EC50 (with co-corrector).
The mark [2] stands for this setting: without co-corrector, read-out: EC50 (without co-corrector).
Where [3] appears, read: without co-corrector, normalized to on-plate positive control corrector (2 μM).

Molecules are shown by their SMILES. Read-outs that look alike come from different tables or passages of the source.

T2 sequence (P13569 with tags, fused parts or gaps DEL508-508): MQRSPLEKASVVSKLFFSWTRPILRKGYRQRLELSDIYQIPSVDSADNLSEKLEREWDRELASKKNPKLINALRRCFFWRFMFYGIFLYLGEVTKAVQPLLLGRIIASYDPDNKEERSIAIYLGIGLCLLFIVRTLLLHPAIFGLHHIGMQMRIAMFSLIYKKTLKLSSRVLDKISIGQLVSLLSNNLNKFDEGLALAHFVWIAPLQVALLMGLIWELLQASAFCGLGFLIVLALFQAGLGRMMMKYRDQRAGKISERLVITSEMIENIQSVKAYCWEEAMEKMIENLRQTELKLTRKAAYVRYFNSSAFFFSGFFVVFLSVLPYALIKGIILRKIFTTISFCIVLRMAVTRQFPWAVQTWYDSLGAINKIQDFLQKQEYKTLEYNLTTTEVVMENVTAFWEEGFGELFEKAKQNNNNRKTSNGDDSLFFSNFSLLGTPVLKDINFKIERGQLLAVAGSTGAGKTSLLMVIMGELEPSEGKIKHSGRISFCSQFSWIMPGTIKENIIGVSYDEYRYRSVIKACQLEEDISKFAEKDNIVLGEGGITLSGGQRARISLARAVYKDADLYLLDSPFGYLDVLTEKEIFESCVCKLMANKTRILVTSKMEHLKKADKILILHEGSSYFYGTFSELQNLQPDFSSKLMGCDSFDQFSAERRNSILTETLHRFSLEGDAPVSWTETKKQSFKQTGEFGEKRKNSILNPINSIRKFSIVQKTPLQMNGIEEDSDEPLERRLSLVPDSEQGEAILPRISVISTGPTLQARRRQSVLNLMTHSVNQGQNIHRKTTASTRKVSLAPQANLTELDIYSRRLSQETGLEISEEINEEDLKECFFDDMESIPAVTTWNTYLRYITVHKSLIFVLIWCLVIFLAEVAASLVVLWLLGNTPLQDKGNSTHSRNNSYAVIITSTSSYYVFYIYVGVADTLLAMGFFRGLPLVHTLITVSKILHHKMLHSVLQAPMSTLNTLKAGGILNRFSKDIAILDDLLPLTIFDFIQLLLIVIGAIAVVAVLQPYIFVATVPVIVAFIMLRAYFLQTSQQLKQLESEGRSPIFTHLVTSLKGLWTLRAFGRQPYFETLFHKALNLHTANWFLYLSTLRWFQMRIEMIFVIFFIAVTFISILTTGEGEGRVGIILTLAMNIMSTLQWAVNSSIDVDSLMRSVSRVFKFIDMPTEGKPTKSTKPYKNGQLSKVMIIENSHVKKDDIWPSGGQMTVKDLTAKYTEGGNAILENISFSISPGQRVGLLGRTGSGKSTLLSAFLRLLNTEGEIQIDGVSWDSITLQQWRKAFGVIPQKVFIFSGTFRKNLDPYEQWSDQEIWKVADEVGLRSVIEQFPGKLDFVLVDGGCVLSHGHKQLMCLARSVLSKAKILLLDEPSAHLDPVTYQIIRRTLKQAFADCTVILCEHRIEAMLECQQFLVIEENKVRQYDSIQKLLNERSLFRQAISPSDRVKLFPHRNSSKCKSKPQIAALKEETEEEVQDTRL
T1 sequence (P13569 with tags, fused parts or gaps DEL508-508): as above

By EC50 is commonly meant the midpoint of the concentration-response curve. Regarding `COc1ccc(C)cc1[C@@]1(C(=O)NS(=O)(=O)c2cccc3nc(C)ccc23)C[C@H]1c1ccccn1` [Example 13, (1R,2R)-1-(2-methoxy-5-methylphenyl)-N-(2-methylquinoline-5-sulfonyl)-2-(pyridin-2-yl)cyclopropane-1-carboxamide], the EC50 on F508delCFTR (setting [1]) was found to be 1490 nM; at F508delCFTR (setting [2]), 2480 nM; at F508del/F508del CFTR, 57.7 nM. The “Emax (% Dual)” value at F508del/F508del CFTR is on record as 232 % Dual.

As to `COc1ccc(C)cc1[C@]1(C(=O)NS(=O)(=O)c2cccc3nc(C)ccc23)C[C@@H]1c1ccccn1` [Example 14, (1S,2S)-1-(2-methoxy-5-methylphenyl)-N-(2-methylquinoline-5-sulfonyl)-2-(pyridin-2-yl)cyclopropane-1-carboxamide], the EC50 on F508delCFTR (setting [1]) worked out at 2800 nM; at F508delCFTR (setting [2]), 3810 nM; on F508del/F508del CFTR it was 799 nM. Further, the “Maximum % activity (without co-corrector)” value on F508delCFTR (setting [3]) was determined as 520%. For the same compound, at F508del/F508del CFTR, the “Emax (% Dual)” value is given as 165 % Dual.

Take `COc1ccc([C@H]2C[C@@]2(C(=O)NS(=O)(=O)c2cccc3nc(C)ccc23)c2cc(C)ccc2OC)cn1` [Example 32, (1S,2R)-1-(2-methoxy-5-methylphenyl)-2-(6-methoxypyridin-3-yl)-N-(2-methylquinoline-5-sulfonyl)cyclopropane-1-carboxamide]: the EC50 is 1440 nM on F508delCFTR (setting [1]), 2960 nM at F508delCFTR (setting [2]) and 9.1 nM at F508del/F508del CFTR. Moreover, the “Emax (% Dual)” value on F508del/F508del CFTR turned out to be 259 % Dual.

Consider `COc1ccc([C@@H]2C[C@]2(C(=O)NS(=O)(=O)c2cccc3nc(C)ccc23)c2cc(C)ccc2OC)cn1` [Example 33, (1R,2S)-1-(2-methoxy-5-methylphenyl)-2-(6-methoxypyridin-3-yl)-N-(2-methylquinoline-5-sulfonyl)cyclopropane-1-carboxamide], for which the EC50 on F508delCFTR (setting [1]) was 906 nM; at F508delCFTR (setting [2]), 1270 nM; on F508del/F508del CFTR, 48.8 nM. Besides, the “Maximum % activity (without co-corrector)” value on F508delCFTR (setting [3]) worked out at 470%. The “Emax (% Dual)” value on F508del/F508del CFTR is 215 % Dual.

Regarding `COc1ccc(C)cc1[C@]1(C(=O)NS(=O)(=O)c2cccc3nc(C)ccc23)C[C@@H]1c1ccccc1C` [Example 34, (1S,2R)-1-(2-methoxy-5-methylphenyl)-2-(2-methylphenyl)-N-(2-methylquinoline-5-sulfonyl)cyclopropane-1-carboxamide], the EC50 was determined as 385 nM on F508delCFTR (setting [1]), 783 nM at F508delCFTR (setting [2]) and 2.9 nM on F508del/F508del CFTR. For the same compound, the “Emax (% Dual)” value on F508del/F508del CFTR is reported as 459 % Dual.

Regarding `COc1cccc([C@H]2C[C@@]2(C(=O)NS(=O)(=O)c2cccc3nc(C)ccc23)c2cc(C)ccc2OC)n1` [Example 43, (1s,2s)-1-(2-methoxy-5-methylphenyl)-2-(6-methoxypyridin-2-yl)-N-(2-methylquinoline-5-sulfonyl)cyclopropane-1-carboxamide], the EC50 on F508delCFTR (setting [1]) is 806 nM; on F508delCFTR (setting [2]), 2420 nM; at F508del/F508del CFTR, 2.9 nM. For the same compound, the “Emax (% Dual)” value on F508del/F508del CFTR turned out to be 272 % Dual.

`COc1cccc([C@@H]2C[C@]2(C(=O)NS(=O)(=O)c2cccc3nc(C)ccc23)c2cc(C)ccc2OC)n1` [Example 44, (1R,2R)-1-(2-methoxy-5-methylphenyl)-2-(6-methoxypyridin-2-yl)-N-(2-methylquinoline-5-sulfonyl)cyclopropane-1-carboxamide]: the values for the EC50 on F508delCFTR (setting [1]), on F508delCFTR (setting [2]) and at F508del/F508del CFTR were 865 nM, 1410 nM and 16.6 nM, respectively. Besides, on F508delCFTR (with co-corrector (2 μM), normalized to on-plate positive control corrector (2 μM)), the “Maximum % activity (with co-corrector)” value is on record as 982%. Moreover, at F508delCFTR (setting [3]), the “Maximum % activity (without co-corrector)” value was found to be 384%. Moreover, the “Emax (% Dual)” value at F508del/F508del CFTR came out at 193 % Dual.

On to `COc1ccc(C)cc1[C@@]1(C(=O)NS(=O)(=O)c2cccc3nc(C)ccc23)C[C@H]1c1cccnc1OC` [Example 49, (1R,2S)-1-(2-methoxy-5-methylphenyl)-2-(2-methoxypyridin-3-yl)-N-(2-methylquinoline-5-sulfonyl)cyclopropane-1-carboxamide], for which the figures for the EC50 on F508delCFTR (setting [1]), on F508delCFTR (setting [2]) and at F508del/F508del CFTR were 1170 nM, 1990 nM and 35.8 nM, respectively. In addition, the “Maximum % activity (without co-corrector)” value at F508delCFTR (setting [3]) is recorded as 453%. Further, at F508del/F508del CFTR, the “Emax (% Dual)” value turned out to be 321 % Dual.
